This assay concerns the target T1, hNLRP3 (Homo sapiens, UniProt Q96P20).
T1 construct: THP-1 cells were purchased from the American Type Culture Collection; host or cells: THP-1 cells, PMA-differentiated
Kind of assay: Measurement of IL-1β production in PMA-differentiated THP-1 cells (hNLRP3 agonist; ELISA, alternative and hTRF procedures). Type of assay: cell-based. As for the experimental part: Measurement of IL-1β production in PMA-differentiated THP-1 cells THP-1 cells were purchased from the American Type Culture Collection and sub-cultured according to instructions from the supplier. Prior to experiments, cells were cultured in RPMI 1640 containing 10% heat inactivated FBS, penicillin (100 units/ml) and streptomycin (100 μg/ml), and maintained in log phase prior to experimental setup. Prior to the experiment THP-1 were treated with PMA (Phorbol 12-myristate 13-acetate) ([…]) for 24 hours. The day of the experiment the media was removed and attaching cells were treated with trypsin for 2 minutes, cells were then collected, washed with PBS (phosphate buffer saline), spin down, resuspended in 2% heat inactivated FBS with RPMI at a concentration of 1×10^6 cells/ml, and 100 μl was plated in a 96 well plate. Compounds were dissolved in dimethyl sulfoxide (DMSO) and added to the culture medium to achieve desired concentration (e.g. 100, 30, 10, 3, 1, 0.3 or 0.1 μM). Cells were incubated with compounds for 4 hours. Cell free supernatant was collected and the production of […] was evaluated by ELISA. A vehicle only control was run concurrently with each experiment. Final DMSO concentration was 1%.
Measurement of IL-1β Production in PMA-Differentiated THP-1 Cells (Alternative Procedure)
THP-1 cells were purchased from the American Type Culture Collection and sub-cultured according to instructions from the supplier. Prior to experiments, cells were cultured in RPMI 1640 containing 10% heat inactivated FBS, penicillin (100 units/ml), streptomycin (100 μg/ml), HEPES (10 mM) and sodium pyruvate (1 mM) and maintained in log phase prior to experimental setup. Prior to the experiment, THP-1 cells were treated with PMA (Phorbol 12-myristate 13-acetate) (20 μg/ml) overnight. The day of the experiment, the media was removed and attached cells were treated with trypsin for 2 minutes, cells were then collected, washed with PBS (phosphate buffer saline), pelleted by centrifugation and resuspended in 2% heat inactivated FBS with RPMI at a concentration of 50,000 cells/well in a 384 well plate. Cell free supernatant was collected and the production of IL-1β was evaluated by ELISA. Compounds were dissolved in dimethyl sulfoxide (DMSO) and added to the culture medium to achieve desired concentration (e.g. 100, 30, 10, 3, 1, 0.3 or 0.1 μM). Cells were incubated with compounds for 2 hours. A vehicle only control was run concurrently with each experiment. Final DMSO concentration was 1%.
Measurement of IL-1β Production—hTRF Protocol (Second Alternative Procedure)
Serial dilutions of compounds in DMSO were added to low volume 384 well plates at 100 nl/well using an ECHO 550 acoustic dispenser (Labcyte) to achieve final starting concentration of 10 μM in assay.
THP-1 cells in RPMI (Gibco, 11875) media with 10% FBS at a density of 1×10^6 cell/ml in a T175 flask were treated with a final concentration of phorbol 12-myristate 13-acetate (PMA) (Sigma, P1585) of 50 ng/ml overnight at 37° C. at 5% CO2 for differentiation. Cells were harvested the next day after rinsing well with dPBS using 0.5% trypsin. A cell solution was prepared of 1×10^6 cells/ml for 50,000 cells in 50 μl/well in RPMI media with 2% FBS. Cells were plated using a multichannel pipette onto the compound dilutions in Greiner, 384 well, black clear bottom tissue culture treated plates (781090). The plates were incubated in 37° C. incubator at 5% CO2 for 2 hours.
After the 2 hour incubation, the cell plates were spun in the centrifuge for 5 minutes at 1200 rpm. Using the Felix (CyBio), 8 μl of the supernatant was transferred to 384 well, low volume, white proxy plates. (Perkin Elmer, 6008230). A human IL1beta hTRF kit was used to analyze the supernatant (CISBIO, 62HIL1BPEG). The kit instructions were followed for preparing the IL1Beta standard curve and then the antibodies from the kit were diluted 1:40 rather than 1:20 as kit instructed.
T1 sequence (Q96P20 whole entry): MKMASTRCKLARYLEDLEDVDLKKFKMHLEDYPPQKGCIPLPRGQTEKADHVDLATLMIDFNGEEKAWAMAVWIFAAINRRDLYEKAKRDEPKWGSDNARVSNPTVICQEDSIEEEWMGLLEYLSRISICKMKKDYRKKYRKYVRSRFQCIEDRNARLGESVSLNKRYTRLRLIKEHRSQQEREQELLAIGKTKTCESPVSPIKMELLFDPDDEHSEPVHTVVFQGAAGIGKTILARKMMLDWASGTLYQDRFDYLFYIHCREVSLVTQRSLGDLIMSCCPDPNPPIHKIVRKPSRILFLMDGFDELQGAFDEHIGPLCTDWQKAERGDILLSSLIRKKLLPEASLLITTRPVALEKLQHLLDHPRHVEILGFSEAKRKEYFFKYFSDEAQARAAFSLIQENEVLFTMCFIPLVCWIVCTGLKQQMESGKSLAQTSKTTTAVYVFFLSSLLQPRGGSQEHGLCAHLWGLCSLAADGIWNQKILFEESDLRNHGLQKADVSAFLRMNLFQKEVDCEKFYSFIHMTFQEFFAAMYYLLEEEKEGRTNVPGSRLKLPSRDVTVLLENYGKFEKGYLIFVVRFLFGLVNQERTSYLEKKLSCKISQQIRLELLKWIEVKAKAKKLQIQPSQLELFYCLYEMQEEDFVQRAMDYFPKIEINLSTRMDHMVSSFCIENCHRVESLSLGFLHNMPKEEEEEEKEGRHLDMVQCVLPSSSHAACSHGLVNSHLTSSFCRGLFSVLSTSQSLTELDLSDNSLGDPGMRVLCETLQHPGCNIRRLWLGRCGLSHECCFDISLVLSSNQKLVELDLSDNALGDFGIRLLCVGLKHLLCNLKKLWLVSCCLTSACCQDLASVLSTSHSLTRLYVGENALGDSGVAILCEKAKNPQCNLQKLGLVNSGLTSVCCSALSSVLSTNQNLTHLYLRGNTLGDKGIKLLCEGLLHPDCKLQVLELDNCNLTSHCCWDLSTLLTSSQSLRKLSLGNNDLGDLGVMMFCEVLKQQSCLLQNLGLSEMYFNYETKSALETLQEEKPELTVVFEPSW
In turn, `Nc1nc2cc(-n3cccn3)ccc2c2[nH]c(CN3CC(c4ccccc4)CC3=O)nc12` (centres unmarked) [Compound 103] had an EC50 of 0.52 µM.
As to `CCN(Cc1nc2c(N)nc3cc(C)ccc3c2[nH]1)C(C)=O` [Compound 104], the EC50 was determined as 0.6 µM.
For the molecule `CCNCc1nc2c(N)nc3cc(-c4cc[nH]n4)ccc3c2n1C` [Compound 106, 2-((Ethylamino)methyl)-1-methyl-7-(1H-pyrazol-3-yl)-1H-imidazo[4,5-c]quinolin-4-amine], the EC50 was 0.7 µM.
Molecule `CCN(Cc1nc2c(N)nc3cc(-n4cccn4)ccc3c2[nH]1)S(C)(=O)=O` [Compound 108, N-((4-Amino-7-(1H-pyrazol-1-yl)-1H-imidazo[4,5-c]quinolin-2-yl)methyl)-N-ethylmethanesulfonamide] came in with an EC50 of 0.87 µM.
The molecule `CCN(Cc1nc2c(N)nc3cc(-c4cc[nH]n4)ccc3c2[nH]1)C(=O)OC(C)(C)C` [Compound 109, tert-Butyl ((4-amino-7-(1H-pyrazol-3-yl)-1H-imidazo[4,5-c]quinolin-2-yl)methyl)(ethyl)carbamate] registered an EC50 of 0.88 µM. This EC50 and that of the molecule before are within 1.5-fold of each other.
The result for `CCN(Cc1nc2c(N)nc3cc(-c4cc[nH]n4)ccc3c2[nH]1)C(=O)N(C)C` [Compound 110, 1-((4-Amino-7-(1H-pyrazol-3-yl)-1H-imidazo[4,5-c]quinolin-2-yl)methyl)-1-ethyl-3,3-dimethylurea] reads 0.9 µM; that for `Nc1nc2cc(C(F)(F)F)ccc2c2[nH]c(CN3CCCC3=O)nc12` [Compound 163], 48.4 µM.
Regarding `CCN(Cc1nc2c(N)nc3ccccc3c2n1CCCC(=O)OC)C(C)=O` [Compound 164], a half-maximal response (EC50) required 4.6 µM.
The molecule `CCN(Cc1nc2c(N)nc3cc(-c4ccccc4)ccc3c2[nH]1)C(C)=O` [Compound 165, N-[(4-amino-7-phenyl-1H-imidazo[4,5-c]quinolin-2-yl)methyl]-N-ethylacetamide] yielded an EC50 of 0.19 µM.
In the case of `CCN(Cc1nc2c(N)nc3cc(-c4cccnc4)ccc3c2[nH]1)C(C)=O` [Compound 166, N-[(4-amino-7-pyridin-3-yl-1H-imidazo[4,5-c]quinolin-2-yl)methyl]-N-ethylacetamide], the EC50 amounted to 3.4 µM.
The molecule `CCN(Cc1nc2c(N)nc3cc(-c4ccncc4)ccc3c2[nH]1)C(C)=O` [Compound 167, N-[(4-amino-7-pyridin-4-yl-1H-imidazo[4,5-c]quinolin-2-yl)methyl]-N-ethylacetamide] displayed an EC50 of 58 µM.
The figure for `CCN(Cc1nc2c(N)nc3cc(-c4cc(C)nn4C)ccc3c2[nH]1)C(C)=O` [Compound 168, N-[[4-amino-7-(2,5-dimethylpyrazol-3-yl)-1H-imidazo[4,5-c]quinolin-2-yl]methyl]-N-ethylacetamide] is 101 µM; for `CCCn1cc(-c2ccc3c(c2)nc(N)c2nc(CN(CC)C(C)=O)[nH]c23)cn1` [Compound 169, N-[[4-amino-7-(1-propylpyrazol-4-yl)-1H-imidazo[4,5-c]quinolin-2-yl]methyl]-N-ethylacetamide] it is 92 µM; for `CCN(Cc1nc2c(N)nc3cc(C(C)C)ccc3c2[nH]1)C(C)=O` [Compound 170, N-[(4-amino-7-propan-2-yl-1H-imidazo[4,5-c]quinolin-2-yl)methyl]-N-ethylacetamide] it is 7.9 µM.
`CCc1ccc2c(c1)nc(N)c1nc(CN(CC)C(C)=O)[nH]c12` [Compound 171, N-[(4-amino-7-ethyl-1H-imidazo[4,5-c]quinolin-2-yl)methyl]-N-ethylacetamide]: the EC50 was found to be 3.2 µM.
The figure for `CCCc1ccc2c(c1)nc(N)c1nc(CN(CC)C(C)=O)[nH]c12` [Compound 172, N-[(4-amino-7-propyl-1H-imidazo[4,5-c]quinolin-2-yl)methyl]-N-ethylacetamide] is 2.1 µM.
With `CCN(Cc1nc2c(N)nc3cc(C4CCCC4)ccc3c2[nH]1)C(C)=O` [Compound 173, N-[(4-amino-7-cyclopentyl-1H-imidazo[4,5-c]quinolin-2-yl)methyl]-N-ethylacetamide], a half-maximal effect (EC50) was put at 0.84 µM.
Molecule `CCN(Cc1nc2c(N)nc3cc(-c4cccnc4F)ccc3c2[nH]1)C(C)=O` [Compound 175, N-[[4-amino-7-(2-fluoropyridin-3-yl)-1H-imidazo[4,5-c]quinolin-2-yl]methyl]-N-ethylacetamide] displayed an EC50 of 2.6 µM.
The figure for `CCN(Cc1nc2c(N)nc3ccccc3c2[nH]1)C(C)=O` [Compound 176] is 25.7 µM.
In turn, `CCN(Cc1nc2c(N)nc3cc(Br)ccc3c2[nH]1)C(C)=O` [Compound 177] yielded an EC50 of 7.4 µM.
Regarding `CCN(Cc1nc2c(N)nc3cc(Cl)ccc3c2[nH]1)C(C)=O` [Compound 179, N-[(4-amino-7-chloro-1H-imidazo[4,5-c]quinolin-2-yl)methyl]-N-ethylacetamide], the EC50 is 12.5 µM. Compared with the last molecule, the EC50 is about 1.7-fold higher.
In turn, `CCN(Cc1nc2c(N)nc3cc(-n4cccn4)ccc3c2[nH]1)C(C)=O` [Compound 180, N-[(4-amino-7-pyrazol-1-yl-1H-imidazo[4,5-c]quinolin-2-yl)methyl]-N-ethylacetamide] yielded an EC50 of 1.5 µM.
`CCN(Cc1nc2c(N)nc3cc(C4=CCCC4)ccc3c2[nH]1)C(C)=O` [Compound 183]: the response was half-maximal at 0.52 µM (EC50).
Consider `CC(=O)N(C)Cc1nc2c(N)nc3ccccc3c2[nH]1` [Compound 187], for which the EC50 was determined as 64 µM.
As to `COC(=O)CCCn1c(CN(C)C(C)=O)nc2c(N)nc3ccccc3c21` [Compound 188], a half-maximal response (EC50) required 5.7 µM.
As to `CCN(Cc1nc2c(N)nc3cc(C4CC4)ccc3c2n1Cc1ccc(OC)cc1)C(C)=O` [Compound 190], the EC50 was found to be 10.3 µM.
In the case of `CCN(Cc1nc2c(N)nc3ccccc3c2n1CCCNC(=O)OC(C)(C)C)C(C)=O` [Compound 191], the EC50 amounted to 65 µM.
The molecule `CCN(Cc1nc2c(N)nc3ccc(Br)cc3c2[nH]1)C(C)=O` [Compound 194] registered an EC50 of 7.9 µM.
The result for `CCN(Cc1nc2c(N)nc3cc(N4CCNC4=O)ccc3c2n1Cc1ccc(OC)cc1)C(C)=O` [Compound 196] reads 32.7 µM; that for `CCN(Cc1nc2c(N)nc3ccc(Cl)cc3c2[nH]1)C(C)=O` [Compound 197], 13.7 µM; that for `CCOC(=O)c1cc2c(cc1Br)nc(N)c1nc(CN(CC)C(C)=O)[nH]c12` [Compound 198], 24.2 µM.
As to `CCN(Cc1nc2c(N)nc3ccc(Br)cc3c2[nH]1)C(=O)OC` [Compound 200], the response was half-maximal at 11.9 µM (EC50).
Take `CCN(Cc1nc2c(N)nc3ccc(Br)cc3c2[nH]1)S(C)(=O)=O` [Compound 201]: the EC50 was 20.8 µM.
For `CCN(Cc1nc2c(N)nc3ccc(Br)cc3c2[nH]1)S(=O)(=O)c1ccc(C)cc1` [Compound 202], the EC50 stood at 35.9 µM.
The result for `CCN(Cc1nc2c(N)nc3ccc(Br)cc3c2[nH]1)C(=O)C(C)C` [Compound 203] reads 10.8 µM; that for `CCN(Cc1nc2c(N)nc3ccc(Br)cc3c2[nH]1)C(=O)c1ccccc1` [Compound 204], 6.7 µM.
The molecule `CCN(Cc1nc2c(N)nc3ccccc3c2n1CCC(=O)N1CCOCC1)C(=O)OC(C)(C)C` [Compound 205] displayed an EC50 of 36 µM.
`CCN(Cc1nc2c(N)nc3ccc(-n4cccn4)cc3c2[nH]1)C(C)=O` [Compound 207] gave an EC50 of 73 µM. Against the preceding molecule, the EC50 is about 2-fold higher.
Turning to `CCN(Cc1nc2c(N)nc3cc(Br)ccc3c2n1CCCC(=O)N1CCN(C)CC1)C(C)=O` [Compound 209], the EC50 was 22 µM.
`CCN(Cc1nc2c(N)nc3cc(Br)ccc3c2n1CCCC(=O)NC)C(C)=O` [Compound 210]: the EC50 was 61 µM. This EC50 lies about 2.8-fold higher than the previous one.
On to `CCN(Cc1nc2c(N)nc3ccccc3c2n1CCC(=O)N1CCN(C(=O)OC(C)(C)C)CC1)C(=O)OC(C)(C)C` [Compound 211], for which a half-maximal effect (EC50) was put at 40 µM.

The term EC50 denotes the concentration needed to bring the measured effect to its halfway point. A high value points to a need for much substance.
